Test results as given in patent US8409619B2, “Oral drug delivery system for azole, moxifloxacin and rifampicin” (priority 2008, dated 2013).
Read-outs that look alike come from different tables or passages of the source.

How the values were obtained:
[1] = system: M. tuberculosis H37Rv; assay: Experimental infection and chemotherapy (murine tuberculosis, cfu in lungs and spleen); format: in vivo; conditions: for Log10 cfu Lung / Log10 cfu Spleen: mice infected i.v. with M. tuberculosis H37Rv, eight weeks oral chemotherapy, sacrificed day 62, mean ± S.D.; for reduction of bacterial burden in organs / cfu reduction from lungs and spleen as compared to untreated controls: mice, eight weeks of chemotherapy; for cfu reduction from lungs and spleen as compared to untreated controls: free form daily/twice daily or encapsulated form weekly
[2] = not given; remark: listed apart in the source

| Structure (SMILES) | Log10 cfu Lung [1] [Log10 cfu] | Log10 cfu Spleen [1] [Log10 cfu] | reduction of bacterial burden in organs [1] | cfu reduction from lungs and spleen as compared to untreated controls [1] | time up to which drug was detectable in plasma (mouse, in vivo, po) [h] | time up to which drug was detected in organs ([2]; mouse, in vivo, po) | time up to which drug was detectable in plasma (oral free drug, mice) | time up to which drug was detected in organs ([2]; oral free drug, mice) [h] |
| --- | --- | --- | --- | --- | --- | --- | --- | --- |
| Clc1ccc(COC(Cn2ccnc2)c2ccc(Cl)cc2Cl)cc1 (stereo not drawn) [Free econazole, econazole] | 4.87 ± 0.040 | 4.89 ± 0.020 | about 2 log cfu | approximately 2 Log10 cfu | 3 to 4 | up to 12 h | – | – |
| COc1c(N2C[C@@H]3CCCN[C@@H]3C2)c(F)cc2c(=O)c(C(=O)O)cn(C3CC3)c12 [Free moxifloxacin, moxifloxacin] | 4.96 ± 0.013 | 4.96 ± 0.013 | about 2 log cfu | approximately 2 Log10 cfu | – | – | up to 12 h | ≤ 24 |
